Measured values reported in patent US20260092061A1, “COMPOUNDS FOR TARGETED PROTEIN DEGRADATION” (Amphista Therapeutics Limited, priority 2022, published 2026).

Legend:
BRD9 [1] = target: T1, BRD9 (Homo sapiens, UniProt Q9H8M2); assay: BRD9 degradation, HiBiT-BRD9 KI HEK293 (LgBiT) cells, NanoGlo Lytic Endpoint assay (Assay Protocol 1); assay type: cell-based; conditions: for Dmax: HEK293
T1 sequence (Q9H8M2 1-597): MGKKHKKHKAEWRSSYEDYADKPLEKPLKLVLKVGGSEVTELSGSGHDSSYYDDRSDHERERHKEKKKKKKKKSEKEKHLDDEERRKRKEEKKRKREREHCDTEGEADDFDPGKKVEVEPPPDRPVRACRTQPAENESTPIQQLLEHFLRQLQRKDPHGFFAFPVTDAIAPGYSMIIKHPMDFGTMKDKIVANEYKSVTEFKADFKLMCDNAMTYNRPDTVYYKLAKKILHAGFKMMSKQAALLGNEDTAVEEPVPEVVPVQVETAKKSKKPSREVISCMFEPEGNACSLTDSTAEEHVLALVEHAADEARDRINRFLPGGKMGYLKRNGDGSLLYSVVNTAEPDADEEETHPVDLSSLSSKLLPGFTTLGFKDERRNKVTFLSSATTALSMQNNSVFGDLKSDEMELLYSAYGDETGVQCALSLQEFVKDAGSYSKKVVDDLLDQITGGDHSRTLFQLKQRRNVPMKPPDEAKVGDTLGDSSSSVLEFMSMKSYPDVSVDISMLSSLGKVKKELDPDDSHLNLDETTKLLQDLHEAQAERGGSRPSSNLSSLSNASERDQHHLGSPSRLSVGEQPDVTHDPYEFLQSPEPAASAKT
In short: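 HiBiT-tagged BRD9 knock-in HEK293 (LgBiT) cells exposed to compounds for 6 h at 37 °C, 5% CO2. Residual BRD9 measured by HiBiT lytic luminescence. % BRD9 remaining normalised to DMSO-treated cells (high) and no-cell wells (low).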

BRD9 [2] = target: T1, BRD9; assay: Degradation of BRD9 (IF), immunofluorescence in MV4-11 cells, 24 hours (Assay Protocol 2); assay type: cell-based; design: A suspension of MV4-11 cells (ATCC CRL-9591) was prepared; host or cells: MV4-11; conditions: BRD9 degradation, determined according to Assay Protocol 2
In short: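 MV4-11 cells treated with compound 24 h at 37° C., then fixed, permeabilised and immunostained for BRD9 (anti-BRD9 E4Q3F, Alexa 647 secondary, Hoechst counterstain). High-content imaging quantified nuclear BRD9 signal; % BRD9 remaining normalised to DMSO and 100 nM CFT-8634 controls.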

SMILES: COc1cc(-c2cn(C)c(=O)c(C)c2C)cc(OC)c1CN(C)C1CCN(C(=O)/C(C#N)=C/C(C)(C)C)CC1 [BRD9d, (E/Z)-2-(4-((2,6-dimethoxy-4-(1,4,5-trimethyl-6-oxo-1,6-dihydropyridin-3-yl)benzyl)(methyl)amino)piperidine-1-carbonyl)-4,4-dimethylpent-2-enenitrile]
- Dmax (BRD9 [1]; Table 4, BRD9 degradation, determined according to Assay Protocol 1, read-out: Dmax^1): > 70%
- Dmax (BRD9 [1]; Table 5, assay protocol 1, read-out: BRD9 Dmax (%)): 70 to 75%
- DC50 (BRD9 [1]; Table 4, BRD9 degradation, determined according to Assay Protocol 1, read-out: DC50^1): 25 to 200 nM
- DC50 (BRD9 [1]; Table 5, assay protocol 1, read-out: BRD9 DC50): 10 to 25 nM
- Dmax (BRD9 [2]; MV4-11, Table 4, read-out: Dmax^2): 50 to 70%
- DC50 (BRD9 [2]; Table 4, read-out: DC50^2): > 200 nM
